What was measured:
[1] = system: MGC-803 (human lung adenocarcinoma cell line); assay: MTT cytotoxicity assay, MGC-803; format: cell-based; conditions: 48 h, no irradiation, mean ± SD of three experiments
Method: (§1) Cell Lines. The following in vitro human cancer cell lines were used: HCT-116 (Human colorectal cells), human KB (human nasopharyngeal carcinoma cells), MGC-803 (human lung adenocarcinoma cell line), HUVEC (Human Umbilical Vein Endothelial Cells). The cell lines (HCT-116, KB, MGC-803 and HUVEC) were purchased from the Cell Resource Center of Shanghai Institutes for Biological Sciences, the Academy of Sciences of China.
(§2) Cell Culture. HCT-116, human KB, MGC-803 and HUVEC cells were cultured in Dulbecco Modified Eagle Medium (DMEM; HyClone, Los Angeles, CA, USA), containing 4.0 mM L-Glutamine and 4500 mg/L Glucose, supplemented with 10% (v/v) foetalbovine serum (FBS; HyClone). The cell culturemedia was supplemented with penicillin/streptomycin at 100 Units/mL as adherent monolayers. Cell cultures were kept in a humidified incubator with 5% CO2 at 37 °C. Stock solutions were prepared in dimethyl sulfoxide (DMSO) and further dilutions were made with fresh culture medium. The concentration of DMSO in the final culture medium was 1%, which had no effect on the cell viability.
(§3) MTT Assay. Chemosensitivity was assessed using 3-(4,5-dimethylthiazol-2-yl)-2,5-diphenyl tetrazolium bromide (MTT) assay. Briefly, exponentially growing HCT-116 (3000–4000 cells/well), human KB (2000–3000 cells/well) and MGC 803 (2000–3000 cells/well) were seeded into 96-well plates and treated with indicated concentrations of samples for 48 h, and then […] of MTT (10 mg/mL) was added. After incubation for 4 h at 37 °C, the purple formazan crystals (i.e., a reduced form of MTT) generated from viable cells were dissolved by adding 100 μL DMSO in each well. The plates were swirled gently for 10 min to dissolve the precipitate, and quantified by measuring the optical density (OD) of the plates at a wavelength of 490 nm on plate reader (TECAN infinite M1000). Each concentration was repeated in three wells and the same experimental conditions were provided for all compounds and MTT analysis was repeated three times for each cell line.

[2] = system: HUVEC (Human Umbilical Vein Endothelial Cells); assay: MTT cytotoxicity assay, HUVEC normal cells; format: cell-based; conditions: no irradiation, mean ± SD of three experiments
Method: as §1, §2, §3

[3] = system: HCT-116 (Human colorectal cells); assay: MTT cytotoxicity assay, HCT-116; format: cell-based; conditions: MTT, 48 h, no irradiation, mean ± SD of three experiments
Method: as §1, §2, §3

[4] = system: human KB (human nasopharyngeal carcinoma cells); assay: MTT cytotoxicity assay, human KB; format: cell-based; conditions: 48 h, no irradiation, mean ± SD of three experiments
Method: as §1, §2, §3

[5] = system: CT-DNA; assay: Spectrofluorimetric titration with CT-DNA (Stern-Volmer and binding constants); set-up: species or system calf; conditions: from F0/F-1 vs [DNA]; Tris-HCl buffer pH 7.2
Method: The DNA binding properties of compounds 8a–8j were evaluated based on their affinity or interaction with CT-DNA, measured with fluorescence spectrometric titration.
The calibration curve for determination of DNA was constructed by adding different proportion of DNA to a 2.0 × 10^−3 M compound 8j solution (pH = 7.2 Tris-HCl buffer). […] [Q] is the concentration of quencher. KSV is the Stern-Volmer constant and KQ is the bimolecular quenching rate constant. τ0 is the lifetime of the fluorophore in the absence of quencher and for most biomolecules τ0 is about 10^−8 s. The Stern-Volmer constant, KSV, for compound 8j has been determined from the plot of F0/F-1 vs. [DNA] (see Figure 2) and found to be 5.11 × 10^2 M^−1.
When small molecules binding independently to a set of equivalent sites on a macromolecule, the equilibrium between free and bound molecules is given by the equation [28]: (2) lg (F0/F-1) = lgKb + nlg[Q] where Kb and n are the binding constant and the number of binding sites, respectively, which could be got from the curve of lg(F0/F-1) vs. lg[Q]. The plot of lg(F0/F-1) vs. lg[DNA] has been shown in Figure 3 for compound 8j and indicates a simple binding process for the compound.
All fluorescence experiments were carried out on a Perkin-Elmer LS50B luminescence spectrometer. Fluorescence spectra were measured at rt using quartz cells of 1cm path. To the solutions of the drugs (2.0 × 10^−3 M) in 2.5 mL Tris-HCl buffer (pH = 7.2) were added aliquots of CT-DNA (2.0 × 10^−3 M) solution containing drugs (2.0 × 10^−3 M) in 2.5 mL Tris-HCl buffer (pH = 7.2). This operation ensured that the concentration of CT-DNA increased gradually from 0 to 360 µM, while the concentrations of drugs were kept constant. The mixing was achieved by stirring for 10min. Then, the corresponding fluorescence spectra were measured (ex 325 nm, ex/em 1.5 nm/1.5 nm). Binding constants were derived from the modified.

[6] = system: HCT-116 cells; assay: Apoptosis and cell cycle analysis by flow cytometry (PI staining); format: cell-based, human; conditions: HCT-116, 48 h at IC50 concentration; untreated cells 35.32%
Method: Compared to the control (untreated cells), changes in the cell cycle distribution of treated HCT-116 cells were evident.
Figure 6 Inhibition of cell cycle progress in HCT-116 cells treated with compounds 8d, 8f, 8c and 8j for 48 h. Cells were fixed with ethanol and stained with PI. Cell cycle distribution was analyzed by flow cytometry. First peak represents sub-G1 peak, which was taken as the fraction of the apoptotic cell population. TEXT PRINTED IN THE PICTURE: 8d: Diploid: 100.00%; Dip G1: 87.24 % at 74.84; Dip G2: 7.42 % at 147.44; Dip S: 5.34 % | 8f: Diploid: 100.00%; Dip G1: 74.25 % at 73.13; Dip G2: 10.86 % at 144.07; Dip S: 14.89 % | 8c: Diploid: 100.00%; Dip G1: 82.72 % at 72.85; Dip G2: 6.28 % at 143.51; Dip S: 11.00% | 8j: Diploid: 100.00%; Dip G1: 15.12 % at 45.10; Dip G2: 52.47 % at 88.84; Dip S: 32.40%; Apoptosis: 4.01 % Mean: 33.84 | Control (−): Diploid: 100.00%; Dip G1: 35.32 % at 52.60; Dip G2: 19.20 % at 103.62; Dip S: 45.84% DOUBTS OF THE COPYIST ABOUT THIS PICTURE: Print is small throughout, so 3, 5, 6, 8 and 9 cannot be told apart with certainty in the values below; best readings are given. / 8d, Dip G1: 87.24 % at 74.84, the 8s uncertain / 8d, Dip S: 5.34, the 5 and 3 uncertain / 8f, Dip G2: 10.86 % at 144.07, the 8 and 6 uncertain / 8f, Dip S: 14.89, the 8 and 9 uncertain / 8c, Dip G1: 82.72 % at 72.85, the 8s and 5 uncertain / 8c, Dip G2: 6.28 % at 143.51, the 6, 8, 3 and 5 uncertain / 8j, Dip G2: 52.47 % at 88.84, the 5 and 8s uncertain / 8j, Apoptosis: 4.01 % Mean: 33.84, the 3s and 8 uncertain / Control (−), Dip G1: 35.32 % at 52.60, the 3s, 5s and 6 uncertain / Control (−), Dip G2: 19.20 % at 103.62, the 9, 3 and 6 uncertain / Control (−), Dip S: 45.84, the 5 and 8 uncertain / Control (−) is an untreated control, not a compound; it is included because results are printed with it. / G2/G1: 1.97 and %CV, printed in every plot, are left out as fit parameter and statistic.
Apoptosis was quantified by assessing the fraction of cells with sub-G1 DNA content by flow cytometry. The cells lines were treated with indicated concentrations of compounds […]. After incubated for 48 h, cells were washed twice with ice-cold PBS, fixed and permeabilized with ice-cold 70% ethanol at −20 °C overnight. The cells were treated with 100 μg/mL RNase A at 37 °C for 30 min after washed with ice-cold PBS, and finally stained with 1 mg/mL propidium iodide (PI) in the dark at 4 °C for 30 min. Analysis was performed with the system software (Cell Quest; BD Biosciences, Franklin Lakes, NJ, USA).

[7] = system: GelRed/CT-DNA; assay: GelRed-DNA competitive binding (fluorescence quenching); set-up: species or system calf; conditions: I0/I vs [Q]; [GelRed]/[DNA] = 1:10, ex 350 nm, em 590 nm
[8] = system: CT-DNA; assay: Circular dichroism spectra of CT-DNA; format: binding, calf; conditions: [compound]/[DNA] 1:10; 1.5 × 10^−4 M DNA, 1.5 × 10^−5 M compound
Method: CD absorption spectra of DNA were measured in TBS at a 100 nm/min scan rate in the wavelength range from 200 to 500 nm, with 1.5 × 10^−4 M DNA in the absence and presence of each compound of 1.5 × 10^−5 M, respectively. The CD signal of TBS was taken as the background and subtracted from the spectra. All the spectroscopic experiments were performed at 25 °C.

[9] = Homo sapiens, MGC-803, light or radiation study
[10] = Homo sapiens, HUVEC, light or radiation study
[11] = Homo sapiens, HCT-116, light or radiation study
[12] = Homo sapiens, light or radiation study

Row | SMILES | IC50 [1, 9] [µM] | IC50 [2, 10] [µM] | IC50 [3, 11] [µM] | IC50 [4, 12] [µM] | KSV (Stern-Volmer constant) [5] [M⁻¹] | IC50 [1] [µM] | IC50 [2] [µM] | IC50 [3] [µM] | IC50 [4] [µM] | G1-phase population [6] [%] | Kq (quenching constant of GelRed bound to DNA) [7] [M⁻¹] | Negative AI decrease (CD absorption peak of CT-DNA at 247 nm) [8] [%] | Positive AI decrease (CD absorption peak of CT-DNA at 281 nm) [8] [%]
1 | Cc1cc(=O)oc2cc(O)ccc12 [Compound 2, 7-Hydroxy-4-methyl-2H-chromen-2-one, reference compound] | > 100 | > 100 | > 100 | > 50 | 442 |  |  |  |  |  |  |  | 
2 | O=c1[nH]cc(F)c(=O)[nH]1 [Compound 5-Fu, 5-fluoro-2,4(1H,3H)pyrimidinedione, reference compound] | 15.3 ± 1.96 | 56 ± 3.21 | 10.1 ± 2.2 | 1.23 ± 1.09 |  |  |  |  |  |  |  |  | 
3 | CCOP(=O)(OCC)C(NC(=O)CCOc1ccc2c(C)cc(=O)oc2c1)c1ccccc1 (stereo not shown) [Compound 8a, Diethyl(3-(4-methyl-2-oxo-2H-chromen-7-yloxy)propanamido)(phenyl)methylphosphonate] |  |  |  |  | 340 | > 100 | > 100 | > 100 | > 50 |  |  |  | 
4 | CCOP(=O)(OCC)C(NC(=O)CCOc1ccc2c(C)cc(=O)oc2c1)c1ccccc1F (stereo not shown) [Compound 8b, Diethyl(3-(4-methyl-2-oxo-2H-chromen-7-yloxy)propanamido)(2-fluorophenyl)methylphospho-nate] |  |  |  |  | 299 | > 100 | > 100 | > 100 | > 50 |  |  |  | 
5 | CCOP(=O)(OCC)C(NC(=O)CCOc1ccc2c(C)cc(=O)oc2c1)c1ccccc1Cl (stereo not shown) [Compound 8c, Diethyl(3-(4-methyl-2-oxo-2H-chromen-7-yloxy)propanamido)(2-chlorophenyl)methylphospho-nate] |  |  |  |  | 481 | 79.4 ± 3.82 | > 100 | 88.7 ± 1.69 | 33.4 ± 1.2 | 82.72 |  |  | 
6 | CCOP(=O)(OCC)C(NC(=O)CCOc1ccc2c(C)cc(=O)oc2c1)c1ccc(Cl)cc1 (stereo not shown) [Compound 8d, Diethyl(3-(4-methyl-2-oxo-2H-chromen-7-yloxy)propanamido)(4-chlorophenyl)methylphospho-nate] |  |  |  |  | 429 | 76.9 ± 3.89 | > 100 | 86.2 ± 1.86 | 7.8 ± 5.36 | 87.24 |  |  | 
7 | CCOP(=O)(OCC)C(NC(=O)CCOc1ccc2c(C)cc(=O)oc2c1)c1ccccc1Br (stereo not shown) [Compound 8e, Diethyl(3-(4-methyl-2-oxo-2H-chromen-7-yloxy)propanamido)(2-bromophenyl)methylphospho-nate] |  |  |  |  | 475 | 67.5 ± 3.26 | > 100 | 90.5 ± 1.09 | 9.55 ± 0.09 |  |  |  | 
8 | CCOP(=O)(OCC)C(NC(=O)CCOc1ccc2c(C)cc(=O)oc2c1)c1ccc(Br)cc1 (stereo not shown) [Compound 8g, Diethyl(3-(4-methyl-2-oxo-2H-chromen-7-yloxy)propanamido)(4-bromophenyl)methylphosph-onate] |  |  |  |  | 410 | 85.6 ± 2.83 | > 100 | 88.5 ± 4.62 | 7.27 ± 6.18 |  |  |  | 
9 | CCOP(=O)(OCC)C(NC(=O)CCOc1ccc2c(C)cc(=O)oc2c1)c1ccccc1OC (stereo not shown) [Compound 8h, Diethyl(3-(4-methyl-2-oxo-2H-chromen-7-yloxy)propanamido)(2-methoxyphenyl)methylphos-phonate] |  |  |  |  | 357 | 36.9 ± 1.96 | > 100 | 23.7 ± 5.89 |  |  | 2410 | 28.5 | 34.5
10 | CCOP(=O)(OCC)C(NC(=O)CCOc1ccc2c(C)cc(=O)oc2c1)c1ccc2ccccc2c1 (stereo not shown) [Compound 8i, Diethyl(3-(4-methyl-2-oxo-2H-chromen-7-yloxy)propanamido)(naphthalen-2-yl)methylphosph-onate] |  |  |  |  | 18100 | 41.5 ± 2.86 | > 100 | 38.9 ± 0.04 |  |  |  |  | 
